Test results published in patent US11285219B2, “Peptide-oligourea hybrid compounds” (UREKA SARL, priority 2019, dated 2022).
Read-outs that look alike come from different tables or passages of the source. Numbered stars: 1 amine (or outer) side, 2 acyl side, 3 side chain; on linkers, the order of the positions; unused ones are H or OH. Bridge positions count the residues as written; N and C are the ends. Peptide text beside a SMILES is read from it. I, II: the chains in the order shown. X2 = C[C@@H](CNC(=O)N[C@@H](C)CNC(=O)N[C@@H](C)CNC(=O)N[C@@H](C)CNC(=O)[*:2])NC(=O)NC[C@H](CCC(=O)O)NC(=O)NC[C@H](Cc1ccc(O)cc1)N[*:1]; X1 = C[C@@H](CNC(=O)N[C@@H](C)CNC(=O)[*:2])NC(=O)NC[C@H](C)N[*:1]

Key:
normal mice (C57BL/6J) [1] = assay: Intra peritoneal glucose tolerance test (IPGTT) in fasted normal mice; type: in vivo, mouse; settings: for activity in IPGTT 5 min after dosing, 60 min after the glucose challenge: 65 min after dosing, compared to vehicle; for activity in IPGTT 5 min after dosing: glucose 2 g/kg i.p.
Description: In a second study, an IPGTT was performed 30 min after i.v. injections of 1, 14 and the vehicle (FIGS. 5B1 and 5B2). […] A further IPGTT study was done with a glucose challenge after 2 h of the dosing to investigate the prolong activity of hybrids 14, 22, and 23 (FIGS. 5C1 and 5C2).
IPGTT experiments in mice. After the acclimation period (at least 5 days), mice (male C57BL/6J mice (Charles River laboratories) (6 weeks old, 20-24 g)) were randomized into 6 groups (n=6/group) according to their body weight. The mice were fasted for 6 h prior being acutely treated via i.v. route (5 μg/mouse i.v. (200 μg/kg, 50 nmol/kg)) formulated at 20 μg/mL in PBS 1×. The IPGTTs were performed (glucose 2 g/kg i.p.) 5 min, 30 min, 2 h or 4 h after dosing and blood glucose was measured 30, 60, 90 and 120 min after the glucose challenge.

[2] = target: T1, mouse GLP-1 receptor endogenously expressed in βTC6 cells (Mus musculus, UniProt O35659); assay: cAMP production functional assay (HTRF), agonist activity at GLP-1R; type: cell-based; settings: for Potency (%), percentage of potency (cAMP production) compared to GLP-1-G^2: Table 2; for Potency (%), percentage of potency compare to GLP-1-G^2: Table 1; for EC50: read-out: EC50 (nM), GLP-1R potency
T1 construct: host or cells: βTC6 cells
T1 sequence (O35659 22-463): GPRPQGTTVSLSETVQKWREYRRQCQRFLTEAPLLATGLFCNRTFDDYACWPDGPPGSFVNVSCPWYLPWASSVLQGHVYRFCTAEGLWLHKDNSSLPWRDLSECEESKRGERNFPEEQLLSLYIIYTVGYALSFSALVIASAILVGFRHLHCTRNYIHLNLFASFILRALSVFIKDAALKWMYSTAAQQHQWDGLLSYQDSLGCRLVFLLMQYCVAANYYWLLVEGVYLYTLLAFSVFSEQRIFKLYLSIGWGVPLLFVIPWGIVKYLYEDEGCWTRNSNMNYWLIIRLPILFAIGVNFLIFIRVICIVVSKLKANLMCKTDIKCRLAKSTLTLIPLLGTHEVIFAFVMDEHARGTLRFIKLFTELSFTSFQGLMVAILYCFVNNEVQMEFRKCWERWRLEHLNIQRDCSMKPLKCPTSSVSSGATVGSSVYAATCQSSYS
Description: The agonistic activity of these hybrids were obtained by functional assays using cells expressing the […] and by measuring the receptor-mediated cAMP produced (see supporting information).
In vitro pharmacology (EC50). […] Following incubation, the cells were lysed and the fluorescence acceptor (D2-labeled cAMP) and fluorescence donor (anti-cAMP antibody labeled with europium cryptate) were added.

NEP 24.11 = NEP 24.11 (Homo sapiens, UniProt P08473); assay: in vitro; settings: pH 8
Description: Enzymatic and mouse plasma degradation studies.
Enzymatic degradation (NEP 24.11). Stock solutions of the oligomers were prepared at a concentration of 400 μM in a solution of 50 mM HEPES buffer, 50 mM NaCl, 0.05% Tween-80, pH 8.0. Stock solution of NEP 24.11 was prepared at a concentration of 100 μg/mL in water. Stability of oligomers to NEP 24.11 was assessed by conducting protease reaction in a 96-well plates at 20° C. […] Each compound was also incubated in the absence of the enzyme (12 μL of HEPES buffer and 38 μL of oligomer). At the indicated time (1, 2, 4, 6 and 22 hours) an aliquot of 10 μL was removed from each experimental reaction and pipetting into 100 μL of 1% TFA solution to quench the reaction, (t=0 min was determined using the reaction without enzyme). A portion of the quenched reaction solution was analyzed by HPLC. The time course of peptide degradation was determined by integrating the area of each peak in a series of HPLC traces.

normal mice (C57BL/6J) [3] = assay: Blood glucose experiment in healthy mice; type: in vivo, mouse; parameters: key to In vivo activity (indicator): + = active; +++: + + + = more active; settings: for In vivo activity (indicator): blood glucose, mice, i.v.; for effect on blood glucose concentration / time the decrease of blood glucose is preserved after dosing: fed normal mice, 5 μg/mouse i.v.; for effect on blood glucose concentration: monitored 6 h
Description: In the first study, we evaluated the effect of the analogues on the blood glucose concentration of normal mice (FIG. 4). The fed mice were treated with the analogues and their blood glucose concentration was monitored before and after dosing for 6 h. […] Indeed, a decrease of blood glucose concentration is observed after 30 min and the effect is preserved for 4 h after dosing.
Blood glucose experiment in healthy mice. After the acclimation period (at least 5 days), mice (male C57BL/6J mice (Charles River laboratories) (8 weeks old, 20-25 g)) were randomized into 10 groups (n=3/group) according to their body weight. They were acutely treated via i.v. route at 10 AM (5 μg/mouse). Blood glucose was measured before dosing and at 30 min, 1, 2, 4, 6 h after dosing in fed conditions.

[4] = pH 7.4
Description: Mouse plasma stability. […] The oligomer was then diluted 1/50 with a solution of plasma/PBS pH 7.4 (1:1) to afford a final concentration of 5 μM and incubated at 37° C. (4 μL of the stock solution was diluted with 196 μL of plasma/PBS, pH 7.4, 1:1) Each compound was also incubated in the absence of plasma (196 μL of H2O/PBS, pH 7.4, 1:1)). At the indicated time (20 min and 60 min) an aliquot of 70 μL was removed from each experimental reaction and pipetting into 175 μL of acetonitrile at 0° C. to quench the reaction, (t=0 min was determined using the reaction without plasma). The samples were frozen before analysis. The frozen sample were defrost, stirred with a vortex 5 min and finally centrifuged 5 min at 16° C. The supernatant was analyzed by LC-MS. The time course of oligomer degradation was determined by integrating the area of the peak in the extracted ion chromatogram.

[5] = receptor-mediated cAMP production, βTC6 cells

NEP 24.11, sequence (P08473 whole entry): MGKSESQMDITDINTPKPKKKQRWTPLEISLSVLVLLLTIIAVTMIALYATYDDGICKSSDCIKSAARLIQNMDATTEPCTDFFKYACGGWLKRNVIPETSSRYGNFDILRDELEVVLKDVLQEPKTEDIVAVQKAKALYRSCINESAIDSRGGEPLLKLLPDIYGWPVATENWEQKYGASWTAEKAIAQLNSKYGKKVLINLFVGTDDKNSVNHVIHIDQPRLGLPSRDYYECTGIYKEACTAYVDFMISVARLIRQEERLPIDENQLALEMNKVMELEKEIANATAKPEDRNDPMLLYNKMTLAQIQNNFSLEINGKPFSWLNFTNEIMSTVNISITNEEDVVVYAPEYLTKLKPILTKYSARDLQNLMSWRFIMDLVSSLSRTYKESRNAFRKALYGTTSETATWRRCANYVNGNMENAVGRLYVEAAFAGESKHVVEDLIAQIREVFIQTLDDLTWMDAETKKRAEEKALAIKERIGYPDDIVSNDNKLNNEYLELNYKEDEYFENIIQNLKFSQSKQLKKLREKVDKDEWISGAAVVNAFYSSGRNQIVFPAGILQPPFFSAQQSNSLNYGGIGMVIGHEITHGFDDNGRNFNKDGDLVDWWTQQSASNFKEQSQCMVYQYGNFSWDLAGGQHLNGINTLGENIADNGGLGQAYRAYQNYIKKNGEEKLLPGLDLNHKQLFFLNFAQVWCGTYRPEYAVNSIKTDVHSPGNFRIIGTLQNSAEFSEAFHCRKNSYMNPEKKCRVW

Structure (SMILES) | activity in IPGTT 5 min after dosing, 60 min after the glucose challenge (normal mice (C57BL/6J) [1]) | IPGTT 2 h after dosing (normal mice (C57BL/6J) [1]; fasted mice, 200 μg/kg i.v.) | activity in IPGTT 30 min after dosing (normal mice (C57BL/6J) [1]; fasted mice, 200 μg/kg i.v.) | activity in IPGTT 5 min after dosing (normal mice (C57BL/6J) [1]; fasted mice, 200 μg/kg i.v.) | Potency (%), percentage of potency (cAMP production) compared to GLP-1-G^2 [2] | times less potent than GLP-1 ([2]; cAMP production) | Potency (%), percentage of potency compare to GLP-1-G^2 ([2]; cAMP production) | EC50 [2] | half-life (NEP 24.11) | In vivo activity (indicator) (normal mice (C57BL/6J) [3]) | effect on blood glucose concentration (normal mice (C57BL/6J) [3]) | Mouse Plasma t1/2 [4] | IPGTT 4 h after dosing (normal mice (C57BL/6J) [1]; fasted mice, 200 μg/kg i.v.) | EC50 [2, 5] | half-life at […] (NEP 24.11) | time the decrease of blood glucose is preserved after dosing (normal mice (C57BL/6J) [3])
CC[C@H](C)[C@H](NC(=O)[C@H](Cc1ccccc1)NC(=O)[C@H](CCC(=O)O)NC(=O)[C@H](CCCCN)NC(=O)[C@H](C)NC(=O)[C@H](C)NC(=O)[C@H](CCC(N)=O)NC(=O)CNC(=O)[C@H](CCC(=O)O)NC(=O)[C@H](CC(C)C)NC(=O)[C@H](Cc1ccc(O)cc1)NC(=O)[C@H](CO)NC(=O)[C@H](CO)NC(=O)[C@@H](NC(=O)[C@H](CC(=O)O)NC(=O)[C@H](CO)NC(=O)[C@@H](NC(=O)[C@H](Cc1ccccc1)NC(=O)[C@@H](NC(=O)CNC(=O)[C@H](CCC(=O)O)NC(=O)CNC(=O)[C@@H](N)Cc1c[nH]cn1)[C@@H](C)O)[C@@H](C)O)C(C)C)C(=O)N[C@@H](C)C(=O)N[C@@H](Cc1c[nH]c2ccccc12)C(=O)N[C@@H](CC(C)C)C(=O)N[C@H](C(=O)N[C@@H](CCCCN)C(=O)NCC(=O)N[C@@H](CCCNC(=N)N)C(=O)NCC(N)=O)C(C)C [Compound 1, GLP-1-G^2, reference compound] | no more significant effect | IPGTT curve similar to the vehicle | inactive | active | 100% | 2.5 times | 100% | 0.24 nM | 216 min | + | decreased of blood glucose concentration after 30 min | 16 min |  |  |  | 
CC[C@H](C)[C@H](NC(=O)[C@H](Cc1ccccc1)NC(=O)NC[C@H](C)NC(=O)NC[C@H](C)NC(=O)NC[C@H](C)NC(=O)[C@H](CCC(N)=O)NC(=O)CNC(=O)[C@H](CCC(=O)O)NC(=O)[C@H](CC(C)C)NC(=O)[C@H](Cc1ccc(O)cc1)NC(=O)[C@H](CO)NC(=O)[C@H](CO)NC(=O)[C@@H](NC(=O)[C@H](CC(=O)O)NC(=O)[C@H](CO)NC(=O)[C@@H](NC(=O)[C@H](Cc1ccccc1)NC(=O)[C@@H](NC(=O)CNC(=O)[C@H](CCC(=O)O)NC(=O)CNC(=O)[C@@H](N)Cc1c[nH]cn1)[C@@H](C)O)[C@@H](C)O)C(C)C)C(=O)N[C@@H](C)C(=O)N[C@@H](Cc1c[nH]c2ccccc12)C(=O)N[C@@H](CC(C)C)C(=O)N[C@H](C(=O)N[C@@H](CCCCN)C(=O)NCC(=O)N[C@@H](CCCNC(=N)N)C(=O)NCC(N)=O)C(C)C [Compound 14, GG2[A^UA^UA^U]^18-21] (I: H-HGEGTFTSDVSSYLEGQ / II: FIAWLVKGRG-NH2; linker I:C-II:N via X1) | still active | good control of the blood glucose concentration | full activity | active | 6% |  | 6% |  |  | +++ | improved efficacy |  | still active after 6 h of the treatment | 4.1 nM | 294 min | 4 h
CC[C@H](C)[C@H](NC(=O)[C@H](Cc1ccccc1)NC(=O)NC[C@H](C)NC(=O)NC[C@H](C)NC(=O)NC[C@H](C)NC(=O)NC[C@H](C)NC(=O)NC[C@H](CCC(=O)O)NC(=O)NC[C@H](Cc1ccc(O)cc1)NC(=O)[C@H](Cc1ccc(O)cc1)NC(=O)[C@H](CO)NC(=O)[C@H](CO)NC(=O)[C@@H](NC(=O)[C@H](CC(=O)O)NC(=O)[C@H](CO)NC(=O)[C@@H](NC(=O)[C@H](Cc1ccccc1)NC(=O)[C@@H](NC(=O)CNC(=O)[C@H](CCC(=O)O)NC(=O)CNC(=O)[C@@H](N)Cc1c[nH]cn1)[C@@H](C)O)[C@@H](C)O)C(C)C)C(=O)N[C@@H](C)C(=O)N[C@@H](Cc1c[nH]c2ccccc12)C(=O)N[C@@H](CC(C)C)C(=O)N[C@H](C(=O)N[C@@H](CCCCN)C(=O)NCC(=O)N[C@@H](CCCNC(=N)N)C(=O)NCC(N)=O)C(C)C [Compound 23, GG2[Y^uE^uA^uA^uA^uA^u]^14-21] (I: H-HGEGTFTSDVSSY / II: FIAWLVKGRG-NH2; linker I:C-II:N via X2) |  | good control of the blood glucose concentration |  |  | 7% |  | 7% |  |  | +++ | improved efficacy |  |  | 3.4 nM | 366 min | 4 h
